The source of these data is PubChem BioAssay (NCI).

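Test compounds were applied to cells in 96-well plates for 48 hours at 5 doses. TGI: concentration producing complete growth inhibition.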

Common to all, as to test: NCI-60 cell line screen, 48 h
Assay [1] relates to PC-3 prostate.
The test system of assay [2] is 786-0 renal.
Assay [3] relates to HOP-62 NSCLC.
The test system of assay [4] is DU-145 prostate.
For assay [5], the system named is UACC-62 melanoma.
Assay [6] has as its system SNB-75 CNS.
Assay [7] relates to OVCAR-8 ovarian.
For assay [8], the system named is MDA-MB-435.
Assay [9] deals with OVCAR-5 ovarian.
For assay [10], the system named is SK-MEL-5 melanoma.
The subject of assay [11] is MOLT-4 leukemia.
Assay [12] has as its system NCI-H226 lung.
Assay [13] concerns MDA-N.
Assay [14] concerns M14 melanoma.
Assay [15] deals with HL-60(TB) leukemia.
Assay [16] concerns KM12 colon.
Assay [17] concerns MALME-3M melanoma.

For the compound `CCCN(CCC)C(=S)Sc1nc(C)nc(N2CCN(c3nc(C)nc(SC(=S)N(CCC)CCC)c3[N+](=O)[O-])CC2)c1[N+](=O)[O-]`, the TGI in [1] was 53.4 µM; in assay [2] it was more than 53 µM; in [3], more than 85 µM; in [4], more than 100 µM; in assay [5], 60.3 µM; in assay [6], more than 100 µM. The TGI was more than 100 µM in assay [7]; more than 65.9 µM in assay [8]; 45.4 µM in [9]; 28.2 µM in [10]; 28 µM in [11]; more than 62.2 µM in assay [12]. In addition, the TGI in assay [13] was more than 100 µM; in assay [14], 60.9 µM; in assay [15] it was more than 38.3 µM; in assay [16], 33.4 µM; in assay [17], 45.6 µM.
Take `CC(C)=CCC[C@@H](C)[C@H]1CC[C@@]2(C)[C@@H]3CC[C@H]4C(C)(C)[C@@H](O)CC[C@@]45C[C@@]35CC[C@]12C`: the TGI in [1] was more than 100 µM; in assay [2] it was more than 61.6 µM; in [3], 59.6 µM; in assay [4], more than 100 µM; in assay [5], more than 100 µM; in [6], more than 100 µM. Also, the TGI in assay [7] is 42.6 µM; in [8] it was more than 68.8 µM; in [9], more than 100 µM; in assay [10], more than 64.4 µM; in assay [11], more than 87.2 µM; in assay [12], more than 74.5 µM. The TGI in [13] is more than 100 µM; in [14], more than 85.1 µM; in [15], more than 95.4 µM; in [16] it was more than 100 µM; in [17] it was more than 100 µM.
